In US10828250B2, “Topical formulation” (LIMEWAY PHARMA DESIGN LIMITED, priority 2015, dated 2020):

Columns and labels:
[1] = saturated solubility of corticosteroids in liquid silicones and in propylene glycol:glycerol(:water) mixtures; type: physicochemical; conditions: for saturated solubility in propylene glycol:glycerol mixtures: as glycerol is added to propylene glycol, FIG. 8; for saturated solubility in propylene glycol:glycerol:water mixtures: as water is added to propylene glycol:glycerol 70:30, FIG. 9; for saturated solubility in liquid silicones: range of liquid silicones including caprylyl methicone, FIG. 1
Experimental: Similarly, active solubility may be reduced in the non-volatile residual phase. […] As glycerol is added to propylene glycol the solubility of FP and MF decreases. […] As water is added to propylene glycol:glycerol 70:30 the solubility of FP and MF decreases. Water may be present in certain embodiments of the formulation or may be present in the residual phase due to uptake of transepidermal water. Although water is a highly volatile solvent, humectant glycols retain water depending upon ambient conditions.

[2] = type: physicochemical
Source text: As described previously, diffusion coefficient-enhancing excipients (DC enhancers) for use in the present invention commonly comprise alcohol, acid or ester derivatives of C8-C22 hydrocarbons.
In the acid and alcohol series, FIG. 2, as carbon chain length increases, solubility in caprylyl methicone decreases to less than 0.1% w/w at C18, such that these higher carbon chain lengths may be considered unsuitable for use as the DC enhancer in the formulation of the present invention owing to low solubility-dissolution constraints. Conversely, lower carbon chain length acids and alcohols such as C8 and C10 alcohols and C8 and C10 acids may be considered to be far too soluble in hydrocarbyl methyl siloxanes including caprylyl methicone, such that their performance as diffusion coefficient-enhancing excipients would be adversely affected. Similarly, long chain (for instance C14-C16) isopropyl esters are far too soluble in hydrocarbyl methyl siloxanes such as caprylyl methicone to allow performance as DC enhancers. For both of these classes of DC enhancer, up to 50% DC enhancer would be required to be at or near saturation in the non-volatile residual phase. In contrast, the C12-C14 acids and C12 alcohol have appropriate solubility in caprylyl methicone.
Conversely, from C16-C22 solubility is too low to allow adequate performance. […]

| Molecule | saturated solubility in propylene glycol:glycerol mixtures [1] | saturated solubility in propylene glycol:glycerol:water mixtures [1] | saturated solubility in liquid silicones [1] | amount to saturate caprylyl methicone (solubility) [2] | amount to saturate propylene glycol (solubility) [2] |
| --- | --- | --- | --- | --- | --- |
| CCC(=O)O[C@]1(C(=O)SCF)[C@H](C)C[C@H]2[C@@H]3C[C@H](F)C4=CC(=O)C=C[C@]4(C)[C@@]3(F)[C@@H](O)C[C@@]21C [fluticasone propionate] | decreases | decreases | appropriately low | – | – |
| C[C@@H]1C[C@H]2[C@@H]3CCC4=CC(=O)C=C[C@]4(C)[C@@]3(Cl)[C@@H](O)C[C@]2(C)[C@@]1(OC(=O)c1ccco1)C(=O)CCl [mometasone furoate] | decreases | decreases | appropriately low | – | – |
| myrystyl alcohol [C14 alcohol] | – | – | – | 2.30% | 2.44% |
